Results reported in patent US12454534B2, “Pyrrolo[2,3-b]pyrazines as HPK1 inhibitor and the use thereof” (BEIGENE, LTD., priority 2019, dated 2025).

biological target: T1, HPK1 kinase (aa1-346, Life Technologies) (Homo sapiens, UniProt Q92918); test: HPK1 Kinase Activity Assay at 1 mM ATP (TR-FRET); assay type: biochemical; details: HPK1 40 nM, read-out: Enzymatic activity IC50
T1 construct: HPK1 kinase (aa1-346, Life Technologies); purchased Life Technologies
T1 sequence (Q92918 1-346): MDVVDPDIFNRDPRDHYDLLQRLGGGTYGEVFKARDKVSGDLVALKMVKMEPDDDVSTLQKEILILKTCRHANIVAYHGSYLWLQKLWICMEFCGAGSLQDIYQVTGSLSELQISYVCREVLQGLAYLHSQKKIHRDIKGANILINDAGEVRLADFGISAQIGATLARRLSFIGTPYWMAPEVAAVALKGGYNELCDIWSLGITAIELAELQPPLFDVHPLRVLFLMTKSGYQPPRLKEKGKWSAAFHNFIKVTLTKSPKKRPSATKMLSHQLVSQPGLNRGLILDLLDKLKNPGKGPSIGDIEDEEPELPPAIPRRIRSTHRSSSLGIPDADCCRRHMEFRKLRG
Procedure: HPK1 Kinase Activity Assay at 1 mM ATP
Compounds disclosed herein were tested for inhibition of HPK1 kinase (aa1-346, Life Technologies) activity in assays based on the time-resolved fluorescence-resonance energy transfer (TR-FRET) methodology. The assays were carried out in 384-well low volume black plates in a reaction mixture containing HPK1 kinase (40 nM), 1 mM ATP, 0.5 μM STK1 substrate and 0-10 μM compound in buffer containing 50 mM HEPES, 0.01% BSA, 0.1 mM Orthovanadate, 10 mM MgCl2, 1 mM DTT, pH=7.0, 0.005% Tween-20. The kinase was incubated with the compounds disclosed herein or DMSO for 60 minutes at room temperature and the reaction was initiated by the addition of ATP and STK1 substrate. After reaction at room temperature for 120 minutes, an equal volume of stop/detection solution was added according to the manufacturer's instruction (CisBio). The stop/detection solution contained STK Antibody-Cryptate and XL665-conjugated streptavidin in Detection Buffer. The TR-FRET signals (ratio of fluorescence emission at 665 nm over emission at 620 nm with excitation at 337 nm wavelength) were recorded on a PHERAstar FS plate reader (BMG Labtech). Phosphorylation of STK1 substrate led to the binding of STK Antibody-Cryptate to the biotinylated STK1 substrate, which places fluorescent donor (Eu^3+ cryptate) in close proximity to the accepter (Streptavidin-XL665), thus resulting in a high degree of fluorescence resonance energy transfer. The inhibition of HPK1 in presence of increasing concentrations of compounds was calculated based on the ratio of fluorescence at 665 nm to that at 620 nm. The IC50 for each compound was derived from fitting the data to the four-parameter logistic equation by Graphpad Prism software.

IC50 [nM]	Compound
63	Cc1cc(-c2c[nH]c3ncc(-c4cc(C)c5c(c4)CN(CCC(=O)NC[C@H](C)O)CC5)nc23)ccc1C(=O)N(C)C [Example 30, (S)-4-(2-(2-(3-(2-hydroxypropylamino)-3-oxopropyl)-5-methyl-1,2,3,4-tetrahydroisoquinolin-7-yl)-5H-pyrrolo[2,3-b]pyrazin-7-yl)-N, N, 2-trimethylbenzamide]
53	Cc1cc(-c2c[nH]c3ncc(-c4cc(C)c5c(c4)CN(CCC(=O)NC4(CO)CC4)CC5)nc23)ccc1C(=O)N(C)C [Example 31, 4-(2-(2-(3-(1-(hydroxymethyl)cyclopropylamino)-3-oxopropyl)-5-methyl-1,2,3,4-tetrahydroisoquinolin-7-yl)-5H-pyrrolo[2,3-b]pyrazin-7-yl)-N, N, 2-trimethylbenzamide]
71	Cc1cc(-c2c[nH]c3ncc(-c4cc(C)c5c(c4)CN(CCC(=O)NCC4(O)CC4)CC5)nc23)ccc1C(=O)N(C)C [Example 32, 4-(2-(2-(3-((1-hydroxycyclopropyl)methylamino)-3-oxopropyl)-5-methyl-1,2,3,4-tetrahydroisoquinolin-7-yl)-5H-pyrrolo[2,3-b]pyrazin-7-yl)-N, N, 2-trimethylbenzamide]
49	Cc1cc(-c2c[nH]c3ncc(-c4cc(C)c5c(c4)CN(CCC(=O)NCC(C)(C)O)CC5)nc23)ccc1C(=O)N(C)C [Example 33, 4-(2-(2-(3-(2-hydroxy-2-methylpropylamino)-3-oxopropyl)-5-methyl-1,2,3,4-tetrahydroisoquinolin-7-yl)-5H-pyrrolo[2,3-b]pyrazin-7-yl)-N, N, 2-trimethylbenzamide]
42	Cc1cc(-c2c[nH]c3ncc(-c4cc(C)c5c(c4)CN(CCC(=O)N[C@@H]4CCOC4)CC5)nc23)ccc1C(=O)N(C)C [Example 34, (R)—N, N, 2-trimethyl-4-(2-(5-methyl-2-(3-oxo-3-(tetrahydrofuran-3-ylamino)propyl)-1,2,3,4-tetrahydroisoquinolin-7-yl)-5H-pyrrolo[2,3-b]pyrazin-7-yl)benzamide]
19	Cc1cc(-c2cnc3[nH]cc(-c4ccc(C(=O)N(C)C[C@@H]5CCOC5)cc4)c3n2)cc2c1CCN(C)C2 [Example 35, (S)-4-(2-(2,5-dimethyl-1,2,3,4-tetrahydroisoquinolin-7-yl)-5H-pyrrolo[2,3-b]pyrazin-7-yl)-N-methyl-N-((tetrahydrofuran-3-yl)methyl)benzamide]
39	Cc1cc(-c2cnc3[nH]cc(-c4ccc(C(=O)N(C)C[C@@H]5CCOC5)cc4)c3n2)cc2c1CCN(CCN1CCC(C)(O)CC1)C2 [Example 36, (S)-4-(2-(2-(2-(4-hydroxy-4-methylpiperidin-1-yl)ethyl)-5-methyl-1,2,3,4-tetrahydroisoquinolin-7-yl)-5H-pyrrolo[2,3-b]pyrazin-7-yl)-N-methyl-N-((tetrahydrofuran-3-yl)methyl)benzamide]
35	Cc1cc(-c2cnc3[nH]cc(-c4ccc(C(=O)N(C)C)cc4)c3n2)cc2c1CCN(CCN1CCC(C)(O)CC1)C2 [Example 37, 4-(2-(2-(2-(4-hydroxy-4-methylpiperidin-1-yl)ethyl)-5-methyl-1,2,3,4-tetrahydroisoquinolin-7-yl)-5H-pyrrolo[2,3-b]pyrazin-7-yl)-N, N-dimethylbenzamide]
186	Cc1cc(-c2c[nH]c3ncc(-c4cc(C)c5c(c4)CN(C)CC5)nc23)ccc1C(=O)N(C)CC(C)(C)O [Example 39, 4-(2-(2,5-dimethyl-1,2,3,4-tetrahydroisoquinolin-7-yl)-5H-pyrrolo[2,3-b]pyrazin-7-yl)-N-(2-hydroxy-2-methylpropyl)-N, 2-dimethylbenzamide]
17	COCCCN(C)C(=O)c1ccc(-c2c[nH]c3ncc(-c4cc(C)c5c(c4)CN(C)CC5)nc23)cc1 [Example 40, 4-(2-(2,5-dimethyl-1,2,3,4-tetrahydroisoquinolin-7-yl)-5H-pyrrolo[2,3-b]pyrazin-7-yl)-N-(3-methoxypropyl)-N-methylbenzamide]
54	Cc1cc(-c2c[nH]c3ncc(-c4cc(C)c5c(c4)CN(CCC(=O)N[C@H]4CC[C@@H](O)CC4)CC5)nc23)ccc1C(=O)N(C)C [Example 41, 4-(2-(2-(3-((cis-4-hydroxycyclohexyl)amino)-3-oxopropyl)-5-methyl-1,2,3,4-tetrahydroisoquinolin-7-yl)-5H-pyrrolo[2,3-b]pyrazin-7-yl)-N, N, 2-trimethylbenzamide]
85	Cc1cc(-c2c[nH]c3ncc(-c4cc(C)c5c(c4)CN(CCC(=O)NCCN4CCN(C)CC4)CC5)nc23)ccc1C(=O)N(C)C [Example 42, N, N, 2-trimethyl-4-(2-(5-methyl-2-(3-((2-(4-methylpiperazin-1-yl)ethyl)amino)-3-oxopropyl)-1,2,3,4-tetrahydroisoquinolin-7-yl)-5H-pyrrolo[2,3-b]pyrazin-7-yl)benzamide]
37	Cc1cc(-c2c[nH]c3ncc(-c4cc(C)c5c(c4)CN(CCC(=O)NC4CC4)CC5)nc23)ccc1C(=O)N(C)C [Example 43, 4-(2-(2-(3-(cyclopropylamino)-3-oxopropyl)-5-methyl-1,2,3,4-tetrahydroisoquinolin-7-yl)-5H-pyrrolo[2,3-b]pyrazin-7-yl)-N, N, 2-trimethylbenzamide]
82	COCCCNC(=O)CCN1CCc2c(C)cc(-c3cnc4[nH]cc(-c5ccc(C(=O)N(C)C)c(C)c5)c4n3)cc2C1 [Example 44, 4-(2-(2-(3-((3-methoxypropyl)amino)-3-oxopropyl)-5-methyl-1,2,3,4-tetrahydroisoquinolin-7-yl)-5H-pyrrolo[2,3-b]pyrazin-7-yl)-N, N, 2-trimethylbenzamide]
52	Cc1cc(-c2c[nH]c3ncc(-c4cc(C)c5c(c4)CN(CCC(=O)NCCO)CC5)nc23)ccc1C(=O)N(C)C [Example 45, 4-(2-(2-(3-((2-hydroxyethyl)amino)-3-oxopropyl)-5-methyl-1,2,3,4-tetrahydroisoquinolin-7-yl)-5H-pyrrolo[2,3-b]pyrazin-7-yl)-N, N, 2-trimethylbenzamide]
65	Cc1cc(-c2c[nH]c3ncc(-c4cc(C)c5c(c4)CN(CCC(=O)NCCCO)CC5)nc23)ccc1C(=O)N(C)C [Example 46, 4-(2-(2-(3-((3-hydroxypropyl)amino)-3-oxopropyl)-5-methyl-1,2,3,4-tetrahydroisoquinolin-7-yl)-5H-pyrrolo[2,3-b]pyrazin-7-yl)-N, N, 2-trimethylbenzamide]
22	Cc1cc(-c2cnc3[nH]cc(-c4ccc(C(=O)N(C)C)cc4)c3n2)cc2c1CCN(CCC(=O)NC1CC1)C2 [Example 47, 4-(2-(2-(3-(cyclopropylamino)-3-oxopropyl)-5-methyl-1,2,3,4-tetrahydroisoquinolin-7-yl)-5H-pyrrolo[2,3-b]pyrazin-7-yl)-N, N-dimethylbenzamide]
65	Cc1cc(-c2cnc3[nH]cc(-c4ccc(C(=O)N(C)C)cc4)c3n2)cc2c1CCN(CCC(=O)N[C@H]1CC[C@H](O)CC1)C2 [Example 48, 4-(2-(2-(3-(((1r, 4r)-4-hydroxycyclohexyl)amino)-3-oxopropyl)-5-methyl-1,2,3,4-tetrahydroisoquinolin-7-yl)-5H-pyrrolo[2,3-b]pyrazin-7-yl)-N, N-dimethylbenzamide]
67	Cc1cc(-c2cnc3[nH]cc(-c4ccc(C(=O)N(C)C)cc4)c3n2)cc2c1CCN(CCC(=O)NCCN1CCN(C)CC1)C2 [Example 49, N, N-dimethyl-4-(2-(5-methyl-2-(3-((2-(4-methylpiperazin-1-yl)ethyl)amino)-3-oxopropyl)-1,2,3,4-tetrahydroisoquinolin-7-yl)-5H-pyrrolo[2,3-b]pyrazin-7-yl)benzamide]
137	Cc1cc(-c2c[nH]c3ncc(-c4cc(C)c5c(c4)CN(CCN4CCOCC4)CC5)nc23)ccc1C(=O)N(C)C[C@@H]1CCOC1 [Example 50, (S)—N, 2-dimethyl-4-(2-(5-methyl-2-(2-morpholinoethyl)-1,2,3,4-tetrahydroisoquinolin-7-yl)-5H-pyrrolo[2,3-b]pyrazin-7-yl)-N-((tetrahydrofuran-3-yl)methyl)benzamide]
36	Cc1cc(-c2cnc3[nH]cc(-c4ccc(C(=O)N(C)C[C@@H]5CCOC5)cc4)c3n2)cc2c1CCN(CCN1CCOCC1)C2 [Example 51, (S)—N-methyl-4-(2-(5-methyl-2-(2-morpholinoethyl)-1,2,3,4-tetrahydroisoquinolin-7-yl)-5H-pyrrolo[2,3-b]pyrazin-7-yl)-N-((tetrahydrofuran-3-yl)methyl)benzamide]
